Structures can show the parent of a compound that is named as a salt.
Test system: aconitin-induced atrial fibrillation
Experiment: Aconitin-induced atrial fibrillation model in anaesthetized dogs (Pharmacological Trial 1)
Type: in vivo, dog
Settings: intravenous, anesthetized dogs, as hydrochloride; for minimal effective dose: Canis lupus familiaris, read-out: minimum dose level which suppresses atrial fibrillation
Protocol: Pharmacological Trial 1: Evaluation of effectiveness in aconitin-induced atrial fibrillation model (dogs) Evaluation was performed according to K. Hashimoto (Jpn. J. Pharmacol., Vol. 46, 349-358, 1988) as follows:
Method: Dog was anesthetized and thoracotomy was made. Persistent atrial fibrillation was induced by placing a piece of filter paper impregnated with 0.5% aconitin solution (20 to 30 μl) on the right atrium. […] Onset and suppression of atrial fibrillation were monitored electrocardiographically by placing Ag--AgCl bipolar electrode on the right atrial auricle.
Results: Each compound in Examples 1 to 87 suppressed atrial fibrillation at least following dose level (all compounds were used in the form of hydrochloride).

Row | Compound | minimal effective dose | minimum dose level which suppresses atrial fibrillation
1 | CC(C)NCCOc1ccc(NC(=O)C2CCOCC2)cc1.Cl [Example 34, 4'-[2-(Isopropylamino)ethoxy]-3,4,5,6-tetrahydro-2H-pyran-4-carboxanilide Hydrochloride] | 3 mg/kg | –
2 | O=C(Nc1ccc(OCCNC2CC2)cc1)C1CCOCC1 [Example 52, 4'-[2-(Cyclopropylamino)ethoxy]-3,4,5,6-tetrahydro-2H-pyran-4-carboxanilideHydrochloride] | 3 mg/kg | –
3 | COCCC(=O)Nc1ccc(OCCNC(C)C)cc1C [Example 71, 4'-[2-(Isopropylamino)ethoxy]-3-methoxy-2'-methylpropananilide] | 3 mg/kg | –
4 | CCCNCCOc1ccc(NC(=O)c2c(OC)cccc2OC)cc1 [Example 26, 2,6-Dimethoxy-4'-[2-(propylamino)ethoxy]benzanilide] | 10 mg/kg | –
5 | Cc1cc(OCCNC(C)C)ccc1NC(=O)c1ccccc1NS(C)(=O)=O.Cl [Example 70, 4'-[2-(Isopropylamino)ethoxy]-2-methanesulfonamido-2'-methylbenzanilide Hydrochloride] | 3 mg/kg | –
6 | Cc1cc(NC(=O)c2ccccc2S(C)(=O)=O)ccc1OCCNC(C)C.Cl [Example 76, 4'-[2-(Isopropylamino)ethoxy]-2-methanesulfonyl-3'-methylbenzanilide Hydrochloride] | 3 mg/kg | –
7 | CCNCCOc1ccc(NC(=O)c2ccoc2)cc1.Cl [Example 25, 4'-[(2-Ethylamino)ethoxy]-3-furanilide Hydrochloride] | 10 mg/kg | –
8 | COc1cccc(OC)c1C(=O)Nc1ccc(OCCNC(C)C)cc1C.Cl [Example 69, 4'-[2-(Isopropylamino)ethoxy]-2,6-dimethoxy-2'-methyl benzanilide Hydrochloride] | 3 mg/kg | –
9 | CCNCCOc1ccc(NC(=O)c2ccoc2)cc1OC.Cl [Example 56, 4'-[2-(Ethylamino)ethoxy]-3'-methoxy-3-furanilide Hydrochloride] | 10 mg/kg | –
10 | COCCC(=O)Nc1ccc(OCCNC(C)C)c(C)c1.Cl [Example 78, 4'-[2-(Isopropylamino)ethoxy]-3-methoxy-3'-methylpropananilide Hydrochloride] | 3 mg/kg | –
11 | Cl.O=C(Nc1ccc(OCCNC2CC2)cc1)C1CCOC1 (centres unmarked) [Example 51, 4'-[2-(Cyclopropylamino)ethoxy]-2,3,4,5-tetrahydro-3-furanilide Hydrochloride] | 3 mg/kg | –
12 | 4'-[2-(Dimethylamino)ethoxy]-2,6-diethylbenzanilide [Example 7] | – | 3.0 mg/kg
13 | CCN(CC)CCOc1ccc(NC(=O)c2c(OC)cccc2OC)cc1.Cl [Example 2, 4'-[2-(diethylamino)ethoxy]-2,6-dimethoxybenzanilide Hydrochloride] | 10 mg/kg | –
14 | CCOCCNCCOc1ccc(NC(=O)c2c(OC)cccc2OC)cc1 [Example 46, 4'-[2-[(2-Ethoxyethyl)amino]ethoxy]-2,6-dimethoxy Benzanilide] | 10 mg/kg | –
15 | 4'-[2-(Dipropylamino)ethoxy]-2,6-dimethoxybenzanilide [Example 15] | – | 10 mg/kg
16 | COCCNCCOc1ccc(NC(=O)C2CCOC2)cc1.Cl (centres unmarked) [Example 43, 4'-[2-[(2-Methoxyethyl)amino]ethoxy]-2,3,4,5-tetrahydro-3-furanilide Hydrochloride] | 10 mg/kg | –
17 | COCCNCCOc1ccc(NC(=O)c2c(OC)cccc2OC)cc1 [Example 41, 4'-[2-[(2-Methoxyethyl)amino]ethoxy]-2,6-dimethoxy Benzanilide] | 10 mg/kg | –
18 | Cc1cc(NC(=O)c2ccccc2S(C)(=O)=O)cc(C)c1OCCNC(C)C.Cl [Example 83, 4'-[2-(Isopropylamino)ethoxy]-2-methanesulfonyl-3',5'-dimethylbenzanilide Hydrochloride] | 10 mg/kg | –
19 | CCNCCOc1ccc(NC(=O)C2CCOC2)cc1.Cl (centres unmarked) [Example 23, 4'-[(2-Ethylamino)ethoxy]-2,3,4,5-tetrahydro-3-furanilide Hydrochloride] | 3 mg/kg | –
20 | Cc1cc(OCCNC(C)C)ccc1NC(=O)c1ccoc1.Cl [Example 72, 4'-[2-(Isopropylamino)ethoxy]-2'-methyl-3-furanilide Hydrochloride] | 3 mg/kg | –
21 | CS(=O)(=O)Nc1ccccc1C(=O)Nc1ccc(OCCNC2CCCC2)cc1 [Example 54] | 10 mg/kg | –
22 | Cc1cc(NC(=O)c2ccccc2NS(C)(=O)=O)ccc1OCCNC(C)C.Cl [Example 75, 4'-[2-(Isopropylamino)ethoxy]-2-methanesulfonamido-3'-methylbenzanilide Hydrochloride] | 10 mg/kg | –

Row | Compound | minimal effective dose | minimum dose level which suppresses atrial fibrillation
23 | COc1cc(NC(=O)c2ccccc2NS(C)(=O)=O)ccc1OCCNC(C)C [Example 58, 4'-[2-(Isopropylamino)ethoxy]-2-meth anesulfonamido-3'-methoxybenzanilide] | 10 mg/kg | –
24 | CC(C)NCCOc1ccc(NC(=O)c2ccccc2S(C)(=O)=O)cc1NS(C)(=O)=O.Cl [Example 5, 4'-[2-(isopropylamino)ethoxy]-3'-methanesulfonamido-2-(methanesulfonyl)benzanilide Hydrochloride] | 10 mg/kg | –
25 | CC(C)NCCOc1ccc(NC(=O)c2ccccc2S(C)(=O)=O)cc1.Cl [Example 32, 4'-[2-(Isopropylamino)ethoxy]-2-(methanesulfonyl) benzanilide Hydrochloride] | 10 mg/kg | –
26 | COc1cc(NC(=O)c2ccoc2)ccc1OCCNC(C)C.Cl [Example 60, 4'-[2-(Isopropylamino)ethoxy]-3'-methoxy-3-furanilide Hydrochloride] | 10 mg/kg | –
27 | CCNCCOc1ccc(NC(=O)CCOC)cc1 [Example 24, 4'-[(2-Ethylamino)ethoxy]-3-methoxypropananilide] | 10 mg/kg | –
28 | CCN(CC)CCOc1ccc(NC(=O)c2ccccc2NS(=O)(=O)CC)cc1.Cl [Example 10, 4'-[2-(Diethylamino)ethoxy]-2-(ethanesulfon amido)benzanilide Hydrochloride] | 3 mg/kg | –
29 | COCCC(=O)Nc1ccc(OCCNC(C)C)cc1.Cl [Example 36, 4'-[2-(Isopropylamino)ethoxy]-3-methoxypropananilide Hydrochloride] | 10 mg/kg | –
30 | CCNCCOc1ccc(NC(=O)c2ccccc2NS(C)(=O)=O)cc1.Cl [Example 21, 4'-[(2-Ethylamino)ethoxy]-2-(methanesulfonamido) benzanilide Hydrochloride] | 10 mg/kg | –
31 | COc1cccc(OC)c1C(=O)Nc1ccc(OCCNC(C)C)cc1NS(C)(=O)=O [Example 64, 4'-[2-(Isopropylamino)ethoxy]-2'-methanesulfonamido-2,6-dimethoxybenzaniideHydrochloride] | 10 mg/kg | –
32 | CCCCNCCOc1ccc(NC(=O)c2c(OC)cccc2OC)cc1 [Example 37, 4'-[2-(Butylamino)ethoxy]-2,6-dimethoxybenzanilide] | 3 mg/kg | –
33 | COCCC(=O)Nc1ccc(OCCNC(C)C)c(OC)c1 [Example 57, 4'-[2-(Isopropylamino)ethoxy]-3-methoxy-3-methoxypropananilide] | 10 mg/kg | –
34 | CCN(CC)CCOc1ccc(NC(=O)c2c(OC)cccc2OC)cc1OC [Example 63, 4'-[2-(Diethylamino)ethoxy]-2,6-dimethoxy-3-methoxybenzanilide] | 10 mg/kg | –
35 | CCCN(CCC)CCOc1ccc(NC(=O)c2c(OC)cccc2OC)cc1 [Example 13, 4'-[2-(Dipropylamino)ethoxy]-2,6-dimethoxybenzanilide] | 10 mg/kg | –
36 | CC(C)(C)NCCOc1ccc(NC(=O)c2ccccc2NS(C)(=O)=O)cc1 [Example 40, 2-Methanesulfonamido-4'-[2-(tert-butylamino)ethoxy]benzanilide] | 0.3 mg/kg | –
37 | COc1cccc(OC)c1C(=O)Nc1cc(C)c(OCCNC(C)C)c(C)c1.Cl [Example 82, 4'-[2-(Isopropylamino)ethoxy]-2,6-dimethoxy-3',5'-dimethyl benzanilide Hydrochloride] | 10 mg/kg | –
38 | CCN(CC)CCOc1ccc(NC(=O)c2ccccc2NS(C)(=O)=O)cc1.Cl [Example 9, 4'-[2-(Diethylamino)ethoxy]-2-(methanesulfonamido)benzanilide Hydrochloride] | 10 mg/kg | –
39 | Cc1cc(NC(=O)c2ccccc2NS(C)(=O)=O)cc(C)c1OCCNC(C)C.Cl [Example 6, 4'-[2-(isopropylamino)ethoxy]-2-methanesulfonamido-3',5'-dimethylbenzanilide Hydrochloride] | 10 mg/kg | –
40 | COc1cc(NC(=O)c2c(OC)cccc2OC)ccc1OCCNC1CCCC1.Cl [Example 62, 4'-[2-(Cyclopentylamino)ethoxy]-2,6-dimethoxy-3'-methoxybenzanilide Hydrochloride] | 10 mg/kg | –
41 | COc1cc(NC(=O)c2ccccc2S(C)(=O)=O)ccc1OCCNC(C)C.Cl [Example 59, 4'-[2-(Isopropylamino)ethoxy]-2-methanesulfonyl-3'-methoxybenzanilide Hydrochloride] | 10 mg/kg | –
42 | COCCNCCOc1ccc(NC(=O)c2ccoc2)cc1.Cl [Example 45, 4'-[2-[(2-Methoxyethyl)amino]ethoxy]-3-furanilide Hydrochloride] | 10 mg/kg | –
43 | COc1cccc(OC)c1C(=O)Nc1ccc(OCCNCC(C)C)cc1 [Example 38, 4'-[2-(Isobutylamino)ethoxy]-2,6-dimethoxybenzanilide] | 3 mg/kg | –
44 | COCCCNCCOc1ccc(NC(=O)c2ccccc2NS(C)(=O)=O)cc1.Cl [Example 49, 2-Methanesulfonamido-4'-[2-[(3-methoxypropyl)amino]ethoxy]benzanilide Hydrochloride] | 10 mg/kg | –
